Measured values from US20240208992A1, “MACROCYCLES AS CFTR MODULATORS” (Idorsia Pharmaceuticals Ltd, priority 2021, published 2024).

Biological target: human F508del-CFTR (Homo sapiens, UniProt P13569, DEL508-508)
Test: F508del-CFTR cell surface expression (corrector activity), DiscoveRx ß-galactosidase complementation chemiluminescence assay in recombinant U2OS cell line;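 also: U2OS cells co-expressing ProLink-tagged F508del-CFTR and a membrane-anchored enzyme acceptor, where more surface CFTR restores β-galactosidase activity measured by chemiluminescence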
Conditions: for EC50: EC50, F508del-CFTR cell surface expression
[1] = U2OS cells, 16h compound incubation, geomean values
[2] = U2OS, in relation to Emax of corrector lumacaftor (=100%), arithmetic mean values
[3] = U2OS cell line, 16h compound incubation, geomean values
[4] = U2OS, in relation to the Emax of the corrector lumacaftor (=100%), U2OS cell line, 16h compound incubation, arithmetic mean values

Sequence of human F508del-CFTR (P13569 with tags, fused parts or gaps DEL508-508): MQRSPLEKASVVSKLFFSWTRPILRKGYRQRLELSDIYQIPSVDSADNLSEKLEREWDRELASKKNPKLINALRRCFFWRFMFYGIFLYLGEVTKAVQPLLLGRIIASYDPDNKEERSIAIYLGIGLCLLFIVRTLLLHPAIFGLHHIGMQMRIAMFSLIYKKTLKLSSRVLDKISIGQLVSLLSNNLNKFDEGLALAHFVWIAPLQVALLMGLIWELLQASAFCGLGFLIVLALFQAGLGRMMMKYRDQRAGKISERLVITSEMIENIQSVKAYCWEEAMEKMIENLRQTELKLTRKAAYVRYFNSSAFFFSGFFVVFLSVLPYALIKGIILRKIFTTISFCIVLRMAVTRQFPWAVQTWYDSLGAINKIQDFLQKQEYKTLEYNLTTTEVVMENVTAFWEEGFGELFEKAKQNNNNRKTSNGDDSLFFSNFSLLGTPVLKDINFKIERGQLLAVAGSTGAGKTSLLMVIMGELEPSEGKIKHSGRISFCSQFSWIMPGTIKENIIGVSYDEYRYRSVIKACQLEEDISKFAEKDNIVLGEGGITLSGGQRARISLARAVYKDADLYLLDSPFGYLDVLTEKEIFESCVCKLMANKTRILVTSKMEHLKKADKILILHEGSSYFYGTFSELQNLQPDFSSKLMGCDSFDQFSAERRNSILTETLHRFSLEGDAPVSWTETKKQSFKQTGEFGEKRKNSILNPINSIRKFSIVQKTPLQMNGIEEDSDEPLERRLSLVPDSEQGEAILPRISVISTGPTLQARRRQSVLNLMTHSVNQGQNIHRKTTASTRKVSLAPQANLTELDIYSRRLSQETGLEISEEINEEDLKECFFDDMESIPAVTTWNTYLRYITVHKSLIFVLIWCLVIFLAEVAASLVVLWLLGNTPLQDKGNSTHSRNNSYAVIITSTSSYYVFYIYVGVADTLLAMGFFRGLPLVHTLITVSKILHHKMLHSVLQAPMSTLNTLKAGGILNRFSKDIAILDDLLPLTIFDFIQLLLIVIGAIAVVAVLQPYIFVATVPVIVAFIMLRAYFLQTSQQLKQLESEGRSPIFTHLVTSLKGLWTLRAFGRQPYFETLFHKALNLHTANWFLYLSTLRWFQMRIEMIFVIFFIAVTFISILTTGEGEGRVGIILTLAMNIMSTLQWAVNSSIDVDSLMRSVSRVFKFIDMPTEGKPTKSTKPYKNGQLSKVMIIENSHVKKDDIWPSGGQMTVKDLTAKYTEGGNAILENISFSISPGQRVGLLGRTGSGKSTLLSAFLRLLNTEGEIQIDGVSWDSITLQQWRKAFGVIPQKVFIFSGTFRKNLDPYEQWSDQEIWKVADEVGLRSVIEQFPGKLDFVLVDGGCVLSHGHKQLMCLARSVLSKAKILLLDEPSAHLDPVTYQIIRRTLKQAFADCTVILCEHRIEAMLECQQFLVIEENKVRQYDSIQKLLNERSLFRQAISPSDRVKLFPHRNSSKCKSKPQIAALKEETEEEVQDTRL

| Structure (SMILES) | EC50 [1] [nM] | Emax [2] [%] | EC50 [3] [nM] | Emax [4] [%] | further results |
| --- | --- | --- | --- | --- | --- |
| CC(C)C[C@H]1C(=O)N2CCCC[C@@H]2C(=O)N[C@H](Cc2ccccc2)COc2cnc3ccccc3c2C(=O)N[C@H](C(=O)NCCc2cc(C3CC3)on2)CC(=O)N1C [Example 105, (9S,13S,19aR,22R)-22-benzyl-N-(2-(5-cyclopropylisoxazol-3-yl)ethyl)-13-isobutyl-12-methyl-7,11,14,20-tetraoxo-7,8,9,10,11,12,13,14,17,18,19,19a,20,21,22,23-hexadecahydro-16H-pyrido[2′,1′:6,7][1]oxa[4,7,10,14]tetraazacycloheptadecino[17,16-c]quinoline-9-carboxamide] | – | – | 173 | 351 | – |
| CC(C)C[C@H]1C(=O)N2CCCC[C@@H]2C(=O)N[C@H](Cc2ccccc2)COc2cnc3ccccc3c2C(=O)N[C@H](C(=O)NCCc2noc(C3CC3)n2)CC(=O)N1C [Example 80, (9S,13S,19aR,22R)-22-benzyl-N-(2-(5-cyclopropyl-1,2,4-oxadiazol-3-yl)ethyl)-13-isobutyl-12-methyl-7,11,14,20-tetraoxo-7,8,9,10,11,12,13,14,17,18,19,19a,20,21,22,23-hexadecahydro-16H-pyrido[2′,1′:6,7][1]oxa[4,7,10,14]tetraazacycloheptadecino[17,16-c]quinoline-9-carboxamide] | – | – | 170 | 308 | – |
| CC(C)C[C@H]1C(=O)N2CCCC[C@@H]2C(=O)N[C@H](Cc2ccccc2)COc2cnc3ccccc3c2C(=O)N[C@H](C(=O)NCCc2cc(C(C)(C)C)on2)CC(=O)N1C [Example 90, (9S,13S,19aS,22R)-22-benzyl-N-(2-(5-(tert-butyl)isoxazol-3-yl)ethyl)-13-isobutyl-12-methyl-7,11,14,20-tetraoxo-7,8,9,10,11,12,13,14,17,18,19,19a,20,21,22,23-hexadecahydro-16H-pyrido[2′,1′:6,7][1]oxa[4,7,10,14]tetraazacycloheptadecino[17,16-c]quinoline-9-carboxamide] | – | – | 364 | – | Emax (in relation to the Emax of the corrector lumacaftor (=100%), U2OS cell line, 16h compound incubation, arithmetic mean values): 129% |
| COc1cc2c(cc1CCNC(=O)[C@@H]1CC(=O)N(C)[C@@H](CC(C)C)C(=O)N3CCOC[C@@H]3C(=O)N[C@H](Cc3ccccc3)COc3ccc4ccccc4c3C(=O)N1)OCCO2 [Example 35, (4aR,7R,18S,22S)-7-benzyl-22-isobutyl-N-(2-(7-methoxy-2,3-dihydrobenzo[b][1,4]dioxin-6-yl)ethyl)-21-methyl-5,16,20,23-tetraoxo-1,2,4,4a,5,6,7,8,16,17,18,19,20,21,22,23-hexadecahydronaphtho[1,2-p][1,4]oxazino[3,4-f][1]oxa[4,7,10,14]tetraazacycloheptadecine-18-carboxamide] | – | – | 262 | 109 | – |
| COc1cccc(CCNC(=O)[C@@H]2CC(=O)N(C)[C@@H](CC(C)C)C(=O)N(C)[C@@H](C)C(=O)N[C@H](Cc3ccccc3)COc3ccc4cc(C)oc4c3C(=O)N2)c1 (mixture of isomers) [Example 575, (8R,11RS,14S,18S)-8-benzyl-14-isobutyl-N-(3-methoxyphenethyl)-2,11,12,15-tetramethyl-10,13,16,20-tetraoxo-7,8,9,10,11,12,13,14,15,16,17,18,19,20-tetradecahydrobenzofuro[7,6-p][1]oxa[4,7,10,14]tetraazacycloheptadecine-18-carboxamide] | 411 | 273 | – | – | – |
| COCCCCCNC(=O)[C@@H]1CC(=O)N(C)[C@@H](CC(C)C)C(=O)N(CCC2CCCCC2)CC(=O)N[C@H](Cc2ccccc2)COc2cccc(OC)c2C(=O)N1 [Example 216, (3R,9S,13S)-3-benzyl-7-(2-cyclohexylethyl)-9-isobutyl-16-methoxy-N-(5-methoxypentyl)-10-methyl-5,8,11,15-tetraoxo-2,3,4,5,6,7,8,9,10,11,12,13,14,15-tetradecahydrobenzo[p][1]oxa[4,7,10,14]tetraazacycloheptadecine-13-carboxamide] | – | – | 420 | 102 | – |
| COc1cc(CCNC(=O)[C@@H]2CC(=O)N(C)[C@@H](CC(C)C)C(=O)N(C)[C@]3(C[C@H](OC)C3)C(=O)N[C@H](Cc3ccccc3)COc3ccc4ncc(F)cc4c3C(=O)N2)on1 [Example 926, (1r,3S,3′S,7′S,13′R)-13′-benzyl-20′-fluoro-7′-isobutyl-3-methoxy-N-(2-(3-methoxyisoxazol-5-yl)ethyl)-6′,9′-dimethyl-1′,5′,8′,11′-tetraoxo-2′,3′,4′,5′,6′,7′,8′,9′,11′,12′,13′,14′-dodecahydro-1′H-spiro[cyclobutane-1,10′-[1]oxa[4,7,10,14]tetraazacycloheptadecino[16,17-f]quinoline]-3′-carboxamide] | – | – | – | – | EC50 (U2OS cells, 16h compound incubation, geomean of several measurements): 759 nM; Emax (U2OS, in relation to the Emax of the corrector lumacaftor (=100%), U2OS cells, 16h compound incubation, arithmetic mean): 416% |
| CC(C)C[C@H]1C(=O)N2CCOC[C@@H]2C(=O)N[C@H](Cc2ccccc2)COc2ccc3ccccc3c2C(=O)N[C@H](C(=O)NCCc2ccc(C#N)cc2)CC(=O)N1C [Example 40, (4aR,7R,18S,22S)-7-benzyl-N-(4-cyanophenethyl)-22-isobutyl-21-methyl-5,16,20,23-tetraoxo-1,2,4,4a,5,6,7,8,16,17,18,19,20,21,22,23-hexadecahydronaphtho[1,2-p][1,4]oxazino[3,4-f][1]oxa[4,7,10,14]tetraazacycloheptadecine-18-carboxamide] | – | – | 897 | 147 | – |

Now from value to molecule, other results behind:

| EC50 [1] [nM] | Emax [2] [%] | EC50 [3] [nM] | Emax [4] [%] | Structure (SMILES) | further results |
| --- | --- | --- | --- | --- | --- |
| 62 | 267 | – | – | CC(C)C[C@H]1C(=O)N2CC[C@@H](c3ccccc3)C[C@@H]2C(=O)N[C@H](Cc2ccccc2)COc2cnc3ccccc3c2C(=O)N[C@H](C(=O)NCCc2cc(C3CC3)no2)CC(=O)N1C [Example 676, (9S,13S,19aR,22R)-22-benzyl-N-(2-(3-cyclopropylisoxazol-5-yl)ethyl)-13-isobutyl-12-methyl-7,11,14,20-tetraoxo-18-phenyl-7,8,9,10,11,12,13,14,17,18,19,19a,20,21,22,23-hexadecahydro-16H-pyrido[2′,11:6,7][1]oxa[4,7,10,14]tetraazacycloheptadecino[17,16-c]quinoline-9-carboxamide] | – |
| – | – | 461 | 225 | CC(C)C[C@H]1C(=O)N2CCOC[C@@H]2C(=O)N[C@H](Cc2ccccc2)COc2ccc3ccccc3c2C(=O)N[C@H](C(=O)NCCc2nc3ccccc3o2)CC(=O)N1C [Example 327, (4aR,7R,18S,22S)-N-(2-(benzo[d]oxazol-2-yl)ethyl)-7-benzyl-22-isobutyl-21-methyl-5,16,20,23-tetraoxo-1,2,4,4a,5,6,7,8,16,17,18,19,20,21,22,23-hexadecahydronaphtho[1,2-p][1,4]oxazino[3,4-f][1]oxa[4,7,10,14]tetraazacycloheptadecine-18-carboxamide] | – |
| 151 | 318 | – | – | Cc1cc(CCNC(=O)[C@@H]2CC(=O)N(C)[C@@H](CC(C)C)C(=O)N3CCCC[C@H]3C(=O)N[C@H](Cc3ccccc3)COc3cnc4ccc(Cl)cc4c3C(=O)N2)on1 [Example 527, (9S,13S,19aR,22R)-22-benzyl-5-chloro-13-isobutyl-12-methyl-N-(2-(3-methylisoxazol-5-yl)ethyl)-7,11,14,20-tetraoxo-7,8,9,10,11,12,13,14,17,18,19,19a,20,21,22,23-hexadecahydro-16H-pyrido[2′,11:6,7][1]oxa[4,7,10,14]tetraazacycloheptadecino[17,16-c]quinoline-9-carboxamide] | – |
| 675 | 358 | – | – | COc1cc(CCNC(=O)[C@@H]2CC(=O)N(C)[C@@H](CC(C)C)C(=O)N(C)[C@H](C)C(=O)N[C@H](Cc3ccccc3)COc3ccc4nccn4c3C(=O)N2)on1 [Example 789, (3S,7S,10R,13R)-13-benzyl-7-isobutyl-N-(2-(3-methoxyisoxazol-5-yl)ethyl)-6,9,10-trimethyl-1,5,8,11-tetraoxo-1,2,3,4,5,6,7,8,9,10,11,12,13,14-tetradecahydroimidazo[1′,2′:1,6]pyrido[2,3-p][1]oxa[4,7,10,14]tetraazacycloheptadecine-3-carboxamide] | – |
| 93 | 345 | – | – | COc1nccc2c1C(=O)N[C@H](C(=O)NCCc1nc(C3CC3)no1)CC(=O)N(C)[C@@H](CC(C)C)C(=O)N(C)[C@@H](COCc1ccccc1)C(=O)N[C@H](Cc1ccccc1)CO2 [Example 724, (3R,6RS,9S,13S)-3-benzyl-6-((benzyloxy)methyl)-N-(2-(3-cyclopropyl-1,2,4-oxadiazol-5-yl)ethyl)-9-isobutyl-16-methoxy-7,10-dimethyl-5,8,11,15-tetraoxo-2,3,4,5,6,7,8,9,10,11,12,13,14,15-tetradecahydropyrido[3,4-p][1]oxa[4,7,10,14]tetraazacycloheptadecine-13-carboxamide] | – |
| 1050 | 199 | – | – | Cc1cc(CCNC(=O)[C@@H]2CC(=O)N(C)[C@@H](CC(C)C)C(=O)N3CCCC[C@@H]3C(=O)N[C@H](Cc3ccccc3)COc3ccnc(C)c3C(=O)N2)on1 [Example 444, (7S,11S,17aR,20R)-20-benzyl-11-isobutyl-4,10-dimethyl-N-(2-(3-methylisoxazol-5-yl)ethyl)-5,9,12,18-tetraoxo-5,6,7,8,9,10,11,12,15,16,17,17a,18,19,20,21-hexadecahydro-14H-dipyrido[2,1-f:3′,4′-p][1]oxa[4,7,10,14]tetraazacycloheptadecine-7-carboxamide] | – |
| 142 | 328 | – | – | Cc1cc(CCNC(=O)[C@@H]2CC(=O)N(C)[C@@H](CC(C)C)C(=O)N(C)[C@H](C3CCCC3)C(=O)N[C@H](Cc3ccccc3)COc3cnc4ccc(F)cc4c3C(=O)N2)on1 [Example 721, (3S,7S,10R,13R)-13-benzyl-10-cyclopentyl-20-fluoro-7-isobutyl-6,9-dimethyl-N-(2-(3-methylisoxazol-5-yl)ethyl)-1,5,8,11-tetraoxo-1,2,3,4,5,6,7,8,9,10,11,12,13,14-tetradecahydro-[1]oxa[4,7,10,14]tetraazacycloheptadecino[17,16-c]quinoline-3-carboxamide] | – |
